Literature values, collected in patent US20170100411A1, “CORTICOSTEROID FORMULATIONS FOR MAINTAINING CORTICOSTEROID SYNOVIAL FLUID CONCENTRATIONS” (priority 2015, published 2017).

How the values were obtained:
[1] = biological target: T1, glucocorticosteroid (GC) receptor (Homo sapiens, UniProt P04150)
T1 sequence (P04150 1-777): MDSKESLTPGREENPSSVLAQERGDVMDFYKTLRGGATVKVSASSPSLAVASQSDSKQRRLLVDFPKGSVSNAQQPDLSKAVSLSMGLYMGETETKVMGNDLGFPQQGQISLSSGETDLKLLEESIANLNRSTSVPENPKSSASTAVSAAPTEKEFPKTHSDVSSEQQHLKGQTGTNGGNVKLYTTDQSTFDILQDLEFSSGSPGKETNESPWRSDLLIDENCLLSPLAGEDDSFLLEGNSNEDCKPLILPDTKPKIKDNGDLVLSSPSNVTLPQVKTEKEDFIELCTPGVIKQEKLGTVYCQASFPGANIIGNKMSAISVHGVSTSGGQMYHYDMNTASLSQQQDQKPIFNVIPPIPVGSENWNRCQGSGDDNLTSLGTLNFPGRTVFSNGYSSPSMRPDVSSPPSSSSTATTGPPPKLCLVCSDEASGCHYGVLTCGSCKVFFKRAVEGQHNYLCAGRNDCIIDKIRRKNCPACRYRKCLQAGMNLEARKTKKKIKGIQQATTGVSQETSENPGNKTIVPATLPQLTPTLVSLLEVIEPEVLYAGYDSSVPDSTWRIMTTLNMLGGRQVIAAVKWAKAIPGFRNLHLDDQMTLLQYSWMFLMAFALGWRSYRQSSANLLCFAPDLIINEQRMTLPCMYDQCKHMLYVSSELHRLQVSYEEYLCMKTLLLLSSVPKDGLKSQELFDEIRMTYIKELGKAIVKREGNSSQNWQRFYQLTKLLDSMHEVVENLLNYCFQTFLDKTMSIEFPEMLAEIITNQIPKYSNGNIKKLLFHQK

HPA axis = conditions: BID administration of 20 mg

| Compound | potency at the GC receptor relative to other corticosteroids such as TCA [1] | suppression of the HPA axis (published CCS %) (HPA axis) |
| --- | --- | --- |
| CCC(=O)O[C@]1(C(=O)SCF)[C@H](C)C[C@H]2[C@@H]3C[C@H](F)C4=CC(=O)C=C[C@]4(C)[C@@]3(F)[C@@H](O)C[C@@]21C [fluticasone propionate] | approximately 20 fold |  |
| Methylprednisone |  | 80-90% |
